From patent US8084467B2, “Pyrazole derivatives as cannabinoid receptor antagonists” (University of Connecticut, priority 2004, dated 2011) come the findings set out here.

Several values for one entry are separate records, joined by “and”; a condition that tells them apart may be missing. Equal values may be shown once. Read-outs that look alike come from different tables or passages of the source.

The target in one experiment is T1, CB2 receptor (Mus musculus, UniProt P47936).
T1 construct: membranes were prepared from frozen mouse spleen; from tissue; host or cells: mouse spleen
T1 sequence (P47936 whole entry): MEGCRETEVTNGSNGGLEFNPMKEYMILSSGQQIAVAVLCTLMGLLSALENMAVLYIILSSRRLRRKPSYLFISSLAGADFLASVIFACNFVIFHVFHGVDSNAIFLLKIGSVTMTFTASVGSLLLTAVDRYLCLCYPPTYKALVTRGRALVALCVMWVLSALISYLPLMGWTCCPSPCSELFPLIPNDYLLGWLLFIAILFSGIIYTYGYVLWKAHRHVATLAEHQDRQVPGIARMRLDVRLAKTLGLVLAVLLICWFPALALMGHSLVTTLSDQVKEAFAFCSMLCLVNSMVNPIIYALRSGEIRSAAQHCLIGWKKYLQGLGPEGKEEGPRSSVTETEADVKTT
Description: CB2 receptor binding, mouse spleen membranes, same manner as the CB1 binding assay. To be noted: for Ki: [3H] CP-55,940; for selectivity CB2: ratio of CB1 Ki to CB2 Ki. The protocol:
Some of the inventive analogs were tested for CB2 receptor binding affinity and for CB1 receptor affinity (to determine selectivity). […] The lower the Ki value the higher the binding affinity.
(§1) The treated membranes were subsequently used in the binding assay described below. Approximately 30 μg of membranes were incubated in silanized 96-well microtiter plate with TME containing 0.1% essentially fatty acid-free bovine serum albumin (BSA), 0.8 nM [^3H] […] Radioactivity was detected using MicroScint 20 scintillation cocktail added directly to the dried filterplates, and the filterplates were counted using a Packard Instruments Top-Count. […] Data collected from three independent experiments performed with duplicate determinations was normalized between 100% and 0% specific binding for [^3H] […] The normalized data was analyzed using a 4-parameter nonlinear logistic equation to yield IC50 values.
Silanized centrifuge tubes were used throughout to minimize receptor loss due to adsorption. The CB2 binding assay was conducted in the same manner as for the CB1 binding assay. The binding affinities (Ki) were also expressed in nanomoles (nM).

A further experiment deals with T2, CB1 cannabinoid receptor (Rattus norvegicus, UniProt P20272).
T2 construct: membranes were prepared from rat forebrain membranes; from tissue; host or cells: rat forebrain
T2 sequence (P20272 whole entry): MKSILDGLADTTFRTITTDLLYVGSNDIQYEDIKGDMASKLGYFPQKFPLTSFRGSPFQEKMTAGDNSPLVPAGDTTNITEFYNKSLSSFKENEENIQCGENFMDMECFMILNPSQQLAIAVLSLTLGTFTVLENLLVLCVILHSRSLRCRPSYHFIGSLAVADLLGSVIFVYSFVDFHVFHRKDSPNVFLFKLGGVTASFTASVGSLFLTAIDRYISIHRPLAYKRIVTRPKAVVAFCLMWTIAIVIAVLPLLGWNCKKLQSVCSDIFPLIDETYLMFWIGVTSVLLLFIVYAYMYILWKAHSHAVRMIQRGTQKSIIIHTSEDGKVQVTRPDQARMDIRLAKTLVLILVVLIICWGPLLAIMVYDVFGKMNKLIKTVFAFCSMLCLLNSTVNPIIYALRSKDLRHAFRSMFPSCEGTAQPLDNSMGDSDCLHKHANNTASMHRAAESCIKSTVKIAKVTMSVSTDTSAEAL
Description: CB1 receptor binding, rat forebrain membranes, [3H] CP-55,940 displacement. To be noted: for Ki: 0.8 nM [3H] CP-55,940. The protocol:
Some of the inventive analogs were tested for CB2 receptor binding affinity and for CB1 receptor affinity (to determine selectivity). […] The lower the Ki value the higher the binding affinity. […]
Membranes, previously frozen at −80° C., were thawed on ice. To the stirred suspension was added three volumes of TME (25 mM Tris-HCl buffer, 5 mM MgCl2 and 1 mM EDTA) at a pH 7.4. The suspension was incubated at 4° C. for 30 min. At the end of the incubation, the membranes were pelleted and washed three times with TME.
as §1

The mark [1] stands for this setting: mouse spleen membranes, read-out: affinities Ki CB2.
[2] abbreviates: rat forebrain membranes, read-out: affinities Ki CB1.
Where [3] appears, read: affinities Ki CB2, mouse spleen membranes.
Setting [4] is: affinities Ki CB1, rat forebrain membranes.

Take `Cc1c(C(=O)NN2CCCCC2)nn(-c2ccc(Cl)cc2Cl)c1-c1ccc(C(N)=S)cc1` [Compound 3-25]: the Ki was found to be 127 nM on CB2 receptor (setting [1]) and 86 nM at CB1 cannabinoid receptor (setting [2]). Besides, the “selectivity CB1” value at CB1 cannabinoid receptor (ratio of CB2 Ki to CB1 Ki) stood at 1.5.

As for `COCc1c(C(=O)NN2CCCCC2)nn(-c2ccc(Cl)cc2Cl)c1-c1ccc(Br)cc1` [Compound 1-8], the values for the Ki at CB2 receptor (setting [3]) and on CB1 cannabinoid receptor (setting [4]) were 561 nM and 19 nM, respectively. The “selectivity CB1” value at CB1 cannabinoid receptor (ratio of CB2 Ki to CB1 Ki) is reported as 31.

Regarding `Cc1c(C(=O)NC23CC4CC(CC(C4)C2)C3)nn(CCCCCI)c1-c1ccccc1` [Compound 4-10], the Ki on CB2 receptor (setting [3]) is 1.01 nM and 1 nM; at CB1 cannabinoid receptor (setting [4]), 1.34 nM and 1.3 nM. At CB2 receptor, the “selectivity CB2” value turned out to be 1.3.

For the molecule `CN(C(=O)Nc1nn(-c2ccc(Cl)cc2Cl)c(-c2ccc(Br)cc2)c1CO)C1CCCCC1` [Compound 2-21], the figures for the Ki at CB2 receptor (setting [1]) and at CB1 cannabinoid receptor (setting [2]) were 4470 nM and 296 nM, respectively. For the same molecule, the “selectivity CB1” value at CB1 cannabinoid receptor (ratio of CB2 Ki to CB1 Ki) was determined as 15.1.

`COCc1c(C(=O)NC2CCCCC2)nn(-c2ccc(Cl)cc2Cl)c1-c1ccc(-c2ccncc2)cc1` [Compound 1-19]: the Ki on CB2 receptor (setting [1]) came to 2980 nM; on CB1 cannabinoid receptor (setting [2]) it was 160 nM. The “selectivity CB1” value at CB1 cannabinoid receptor (ratio of CB2 Ki to CB1 Ki) was 18.6.

For `CCOCc1c(C(=O)NC23CC4CC(CC(C4)C2)C3)nn(-c2ccc(Cl)cc2Cl)c1-c1ccc(Br)cc1` [Compound 1-11], the figures for the Ki at CB2 receptor (setting [1]) and at CB1 cannabinoid receptor (setting [2]) were 47500 nM and 105 nM, respectively. For the same molecule, on CB1 cannabinoid receptor (ratio of CB2 Ki to CB1 Ki), the “selectivity CB1” value is given as 452.

Take `Cc1c(NC(=O)C2CCCCC2)nn(-c2ccc(Cl)cc2Cl)c1-c1ccc(Br)cc1` [Compound 3-14]: the Ki at CB2 receptor (setting [3]) is 27100 nM; on CB1 cannabinoid receptor (setting [2]) it was 4230 nM. The “selectivity CB1” value on CB1 cannabinoid receptor (ratio of CB2 Ki to CB1 Ki) is 6.4.

As to `Cc1c(C(=O)NC2CCCCC2)nn(-c2ccc(Cl)cc2Cl)c1-c1ccc(-c2nnn(C)n2)cc1` [Compound 2-9], the Ki turned out to be 381 nM on CB2 receptor (setting [1]) and 20 nM at CB1 cannabinoid receptor (setting [2]). At CB1 cannabinoid receptor (ratio of CB2 Ki to CB1 Ki), the “selectivity CB1” value is on record as 19.

Take `O=C(Nc1nn(-c2ccc(Cl)cc2Cl)c(-c2ccc(Br)cc2)c1CO)NC1CCCCC1` [Compound 2-19]: the Ki at CB2 receptor (setting [1]) was 4920 nM; at CB1 cannabinoid receptor (setting [2]), 9 nM. Also, the “selectivity CB1” value at CB1 cannabinoid receptor (ratio of CB2 Ki to CB1 Ki) is listed as 546.7.

As to `Cc1c(C(=O)NN2CCCCC2)nn(-c2ccc(Cl)cc2Cl)c1-c1ccc(-c2nnn(C)n2)cc1` [Compound 2-3], the Ki at CB2 receptor (setting [1]) turned out to be 517 nM; at CB1 cannabinoid receptor (setting [2]), 6 nM. In addition, the “selectivity CB1” value on CB1 cannabinoid receptor (ratio of CB2 Ki to CB1 Ki) was found to be 86.2.

For `Cc1c(C(=O)NC2CCCCC2)nn(-c2ccc(Cl)cc2Cl)c1-c1ccc(-c2nnnn2C)cc1` [Compound 2-8], the figures for the Ki on CB2 receptor (setting [1]) and at CB1 cannabinoid receptor (setting [2]) were 1070 nM and 120 nM, respectively. Besides, at CB1 cannabinoid receptor (ratio of CB2 Ki to CB1 Ki), the “selectivity CB1” value is 8.9.

Consider `CN(C(=O)c1nn(-c2ccc(Cl)cc2Cl)c(-c2ccc(-c3nnn(C)n3)cc2)c1CO)C1CCCCC1` [Compound 2-18], for which the Ki at CB2 receptor (setting [1]) was determined as 641 nM; at CB1 cannabinoid receptor (setting [2]) it was 210 nM. Besides, the “selectivity CB1” value on CB1 cannabinoid receptor (ratio of CB2 Ki to CB1 Ki) amounted to 3.0.

In the case of `Cc1c(C(=O)N(C)C2CCCCC2)nn(-c2ccc(Cl)cc2Cl)c1-c1ccc(-c2nnnn2C)cc1` [Compound 2-14], the results for the Ki on CB2 receptor (setting [1]) and at CB1 cannabinoid receptor (setting [2]) were 941 nM and 1270 nM, respectively. Besides, on CB2 receptor, the “selectivity CB2” value is listed as 1.4.

Regarding `Cn1nnc(-c2ccc(-c3c(CO)c(C(=O)NC4CCCCC4)nn3-c3ccc(Cl)cc3Cl)cc2)n1` [Compound 2-12], the Ki on CB2 receptor (setting [1]) turned out to be 36.5 nM; on CB1 cannabinoid receptor (setting [2]) it was 37 nM. For the same molecule, on CB1 cannabinoid receptor (ratio of CB2 Ki to CB1 Ki), the “selectivity CB1” value is 1.

Consider `Cc1c(NC(=O)NC2CCCCC2)nn(-c2ccc(Cl)cc2Cl)c1-c1ccc(I)cc1` [Compound 3-10], for which the Ki on CB2 receptor (setting [1]) stood at 21800 nM; on CB1 cannabinoid receptor (setting [2]), 26 nM. In addition, the “selectivity CB1” value at CB1 cannabinoid receptor (ratio of CB2 Ki to CB1 Ki) was 838.1.

In the case of `Cc1c(C(=O)Nc2ccc3ccccc3c2)nn(CCCCCCl)c1-c1ccccc1` [Compound 4-3], the Ki on CB2 receptor (setting [3]) was 15.4 nM; at CB1 cannabinoid receptor (setting [4]) it was 14.6 nM.

Regarding `Cc1c(C(=O)NC2CC(C)C3CC2C3(C)C)nn(CCCCCCl)c1-c1ccccc1` (centres unmarked) [Compound 4-7], the Ki at CB2 receptor (setting [3]) was 2.76 nM and 2.8 nM; on CB1 cannabinoid receptor (setting [4]), 4.73 nM and 4.7 nM. In addition, the “selectivity CB2” value on CB2 receptor came out at 1.7.

For `COCc1c(C(=O)NC23CC4CC(CC(C4)C2)C3)nn(-c2ccc(Cl)cc2Cl)c1-c1ccc(Br)cc1` [Compound 1-7], the Ki on CB2 receptor (setting [1]) was found to be 1680 nM; on CB1 cannabinoid receptor (setting [2]), 53 nM. The “selectivity CB1” value at CB1 cannabinoid receptor was found to be 32.

Turning to `Cc1c(C(=O)NN2CCCCC2)nn(-c2ccc(Cl)cc2Cl)c1-c1ccc(-c2cccnc2)cc1` [Compound 1-4], the Ki was determined as 1330 nM on CB2 receptor (setting [1]) and 11.2 nM at CB1 cannabinoid receptor (setting [2]). Moreover, the “selectivity CB1” value on CB1 cannabinoid receptor (ratio of CB2 Ki to CB1 Ki) is reported as 118.

A word on the Ki: it is the equilibrium dissociation constant of an inhibitor or competing ligand from its target.
